Assay results reported in paper PMC6797804, “Histone H3K23-specific acetylation by MORF is coupled to H3K14 acylation” (Nature Communications, 2019).

How the values were obtained:
native MORF complex = experiment: HAT assay, native MORF complex from K562 cells; format: biochemical, Homo sapiens; settings: native WT MORF complex; H3 peptides residues 1–29, 3H-Ac-CoA, pH 8, 30 min at 30 °C; scintillation CPM; n = 2
Procedure: For purification of native complexes, after large-scale expansion of K562 clones, tandem affinity purifications (TAP) of MORF and MOZ complexes were performed on nuclear extracts as previously described[43]. Briefly, nuclear extracts were prepared following standard procedures and precleared with CL6B Sepharose beads.
(§1) The amounts of native (K562) or overexpressed (293T) MORF complexes were normalized empirically following SDS-PAGE and transfer onto nitrocellulose membrane. Anti-FLAG M2 conjugated to horseradish peroxydase (HRP; Sigma) was used at a 1:10,000 dilution and the immunoblots were visualized using a Western Lightning plus-ECL reagent (Perkin-Elmer). Anti-HA-HRP (clone 3F10, Roche) was used at a 1:2000 dilution.

MORFN complex = experiment: HAT assay, WT MORFN complex overexpressed in 293T cells; format: biochemical; settings: H3 peptides residues 1–29, 3H-Ac-CoA, pH 8, 30 min at 30 °C, CPM, n = 2
Description: as §1

MORFN F287A complex = experiment: HAT assay, MORFN F287A complex overexpressed in 293T cells; format: biochemical; settings: H3K23ac peptide residues 1–29, 3H-Ac-CoA, pH 8, 30 min at 30 °C, CPM, n = 2
Procedure: Cells were harvested 48 h post-co-transfection and lysed in high-salt buffer (450 mM NaCl, 50 mM Tris-HCl (pH 8.0), 1% TX-100, 2 mM MgCl2, 0.1 mM ZnCl2, 2 mM EDTA, 10% glycerol) supplemented with protease inhibitor mixture. The NaCl concentration was reduced to 225 mM and the whole cell extract centrifuged at 14,000 rpm for 30 min. […] FLAG beads were next washed with the 225 mM NaCl buffer and eluted with 200 μg/ml of 3× FLAG peptide (Sigma).
In Fig. 4e and Supplementary Fig. 7, FLAG-tagged MORF proteins were overexpressed and prepared from transiently transfected 293T cells. Briefly, approximately 2 mg of total cell extract was incubated with 25 μl of M2-agarose beads (Sigma) overnight at 4 °C. […]
Acetyltransferase activity of the purified complexes was measured with 0.125 µCi of ^3H labeled Ac-CoA (2.1 Ci/mmol; PerkinElmer Life Sciences). […] The reactions were then captured on P81 filter paper, the free H3-labeled Ac-CoA was washed away and the paper was analyzed using Liquid Scintillation. […]
In Fig. 4e and Supplementary Fig. 7, purified MORF proteins were incubated at 37 °C for indicated times with peptides (1 μg) and 0.1 mM acetyl-CoA in HAT reaction buffer (50 mM Tris, pH 8.0, 0.1 mM EDTA, 10% glycerol, 1 mM PMSF, and 1 mM DTT) in a total volume of 50 μL. Reactions were quenched by flash-freezing in liquid nitrogen and then analyzed by SDS-PAGE and Western blot.

“H3K23ac: H3 peptide (residues 1–29) pre-acetylated at Lys23” was tested, and the “decrease in HAT activity relative to unmodified H3 peptide” value (native MORF complex) was ~ 12 fold, the “decrease in HAT activity relative to unmodified H3 peptide” value (MORFN complex; WT MORFN complex (293T)) was ~ 7 fold and the “HAT activity of MORFN complex, in words” value (MORFN complex; WT MORFN complex) was “substantially reduced residual enzymatic activity”. For the same substance, the “HAT activity of MORFN F287A complex, in words” value (MORFN F287A complex) was “substantially reduced residual enzymatic activity”.
